In patent publication US9409884B2 (Rigel Pharmaceuticals, Inc., priority 2012, dated 2016) one finds EC50 data, which are given here for twelve molecules.

Usually pEC50 stands for the EC50 on a negative log10 scale, so that one unit is a factor of ten. A lower pEC50 goes with a high EC50.

pEC50: −log10 of the molar value.

The test has as its target AMPK. In words: AMPK activation, enzyme-linked immunosorbent assay. The note with it: Table 8, compounds of Table 1. It is filed as biochemical. The method, then:
Compounds of Table 1 were assayed for their ability to activate AMPK using an enzyme-linked immunosorbent assay.
Compounds of Table 2 were assayed for their ability to activate AMPK using an enzyme-linked immunosorbent assay.
Compounds of Table 3 were assayed for their ability to activate AMPK using an enzyme-linked immunosorbent assay.
Compounds of Table 4 were assayed for their ability to activate AMPK using an enzyme-linked immunosorbent assay.
Compounds of Table 5 were assayed for their ability to activate AMPK using an enzyme-linked immunosorbent assay.
Compounds of Table 6 were assayed for their ability to activate AMPK using an enzyme-linked immunosorbent assay.
Compounds of Table 7 were assayed for their ability to activate AMPK using an enzyme-linked immunosorbent assay.
In turn, `O=C(NC1CCN(Cc2ccncc2)CC1)c1ccnc(OC2CCN(c3ccc(C(F)(F)F)cc3)CC2)c1` [Compound 1-20, N-(1-(pyridin-4-ylmethyl)piperidin-4-yl)-2-(1-(4-(trifluoromethyl)phenyl)piperidin-4-yloxy) isonicotinamide] showed a pEC50 of 6.00 to 6.30.

Regarding `N#Cc1ccc(CN2CCC(NC(=O)c3ccnc(OC4CCN(c5ccc(C(F)(F)F)cc5)CC4)c3)CC2)cc1` [Compound 1-21, N-(1-(4-cyanobenzyl)piperidin-4-yl)-2-(1-(4-(trifluoromethyl)phenyl)piperidin-4-yloxy) isonicotinamide], the pEC50 was 6.30 to 7.00.

Regarding `O=C(NC1CCN(Cc2ccc(F)cc2)CC1)c1ccnc(OC2CCN(c3ccc(C(F)(F)F)cc3)CC2)c1` [Compound 1-22, N-(1-(4-fluorobenzyl)piperidin-4-yl)-2-(1-(4-(trifluoromethyl)phenyl)piperidin-4-yloxy) isonicotinamide], the pEC50 is 5.30 to 6.00.

For `CC(C)(C)OC(=O)N1CC[C@@H](NC(=O)c2ccc(OC3CCN(c4ccc(C(F)(F)F)cc4)CC3)cn2)C1` [Compound 1-23, (R)-tert-butyl 3-(5-(1-(4-(trifluoromethyl)phenyl)piperidin-4-yloxy)picolinamido) pyrrolidine-1-carboxylate], the pEC50 is 6.30 to 7.00.

For the molecule `O=C(N[C@@H]1CCNC1)c1ccc(OC2CCN(c3ccc(C(F)(F)F)cc3)CC2)cn1` [Compound 1-24, (R)-N-(pyrrolidin-3-yl)-5-(1-(4-(trifluoromethyl)phenyl)piperidin-4-yloxy) picolinamide], the pEC50 was 5.00 to 5.30.

Molecule `O=C(N[C@@H]1CCN(Cc2ccncc2)C1)c1ccc(OC2CCN(c3ccc(C(F)(F)F)cc3)CC2)cn1` [Compound 1-25, (R)-N-(1-(pyridin-4-ylmethyl)pyrrolidin-3-yl)-5-(1-(4-(trifluoromethyl)phenyl)piperidin-4-yloxy)picolinamide] had a pEC50 of 6.30 to 7.00.

`CC(C)(C)OC(=O)N1CC[C@H](NC(=O)c2ccc(OC3CCN(c4ccc(C(F)(F)F)cc4)CC3)cn2)C1` [Compound 1-26, (S)-tert-butyl 3-(5-(1-(4-(trifluoromethyl)phenyl)piperidin-4-yloxy)picolinamido) pyrrolidine-1-carboxylate] had a pEC50 of 6.30 to 7.00.

With `O=C(N[C@H]1CCNC1)c1ccc(OC2CCN(c3ccc(C(F)(F)F)cc3)CC2)cn1` [Compound 1-27, (S)-N-(pyrrolidin-3-yl)-5-(1-(4-(trifluoromethyl)phenyl)piperidin-4-yloxy)picolinamide], the pEC50 is < 5.00.

For `N#Cc1ccc(CN2CCC(NC(=O)c3cc(OC4CCN(c5ccc(C(F)(F)F)cc5)CC4)ccn3)CC2)cc1` [Compound 1-28, N-(1-(4-cyanobenzyl)piperidin-4-yl)-4-(1-(4-(trifluoromethyl)phenyl)piperidin-4-yloxy)picolinamide], the negative-log EC50 (pEC50) is > 7.00.

In turn, `O=C(NC1CCN(Cc2ccc(F)cc2)CC1)c1cc(OC2CCN(c3ccc(C(F)(F)F)cc3)CC2)ccn1` [Compound 1-29, N-(1-(4-fluorobenzyl)piperidin-4-yl)-4-(1-(4-(trifluoromethyl)phenyl)piperidin-4-yloxy)picolinamide] gave a negative logarithm of the EC50 (pEC50) of 6.30 to 7.00.

Turning to `O=C(N[C@H]1CCN(Cc2ccncc2)C1)c1ccc(OC2CCN(c3ccc(C(F)(F)F)cc3)CC2)cn1` [Compound 1-30, (S)-N-(1-(pyridin-4-ylmethyl)pyrrolidin-3-yl)-5-(1-(4-(trifluoromethyl)phenyl)piperidin-4-yloxy)picolinamide], the pEC50 was > 7.00.

In the case of `N#Cc1ccc(CN2CC[C@H](NC(=O)c3ccc(OC4CCN(c5ccc(C(F)(F)F)cc5)CC4)cn3)C2)cc1` [Compound 1-31, (S)-N-(1-(4-cyanobenzyl)pyrrolidin-3-yl)-5-(1-(4-(trifluoromethyl)phenyl)piperidin-4-yloxy) picolinamide], the pEC50 is > 7.00.
